Experimental data taken from PMC9046208, “Foldamers reveal and validate therapeutic targets associated with toxic α-synuclein self-assembly” (Nature Communications, 2022).

Key:
[1] = tested on: HEK cells expressing αS-A53T-YFP; assay: MTT viability of HEK cells treated with PMCA samples / PD fibrils; format: cell-based; details: for Relative cell viability (Supp. Figure 27): HEK cells, PD+SK-129
Method: The HEK293 cells that stably express αS-A53T-YFP and αS-YFP were grown in DMEM with 10% FBS and 1% pen/strep and cultured in an incubator at 37 °C and 5% CO2(g). A total of 60,000 cells per well in 300 µL media were plated in a µ-slide eight-well plate (Ibidi, Munich, Germany) and incubated for 24 h to adhere to the plate. […] Next, the plate was incubated for 24 h, followed by the addition of 30 µL of 1x PBS buffer containing MTT dye (in 1x PBS buffer, 5 mg/mL) to each well. The plates were wrapped in aluminum foil and incubated for 3 h. After 3 h, all liquid was aspirated carefully without disturbing the formazan crystals. To each well, 300 µL of DMSO was added to dissolve the crystals. Once dissolved, the DMSO solution was transferred to a clear 96-well plate (100 µL/well). The absorbance was read on a 96-well plate reader at 570 nm. The cytotoxicity of the HEK cells was monitored for up to 4 days.
The seeds were generated by aggregating recombinant αS (100 µM) in the absence and presence of SK-129 at an equimolar ratio under the ThT aggregation kinetic conditions for seven days. In the case of seeds from the brain, we used a PMCA sample (5th cycle) generated from the brain seeds in the absence and presence of SK-129 at an equimolar ratio.
Supplementary Fig. 27. Effect of SK-129 on the PD fibrils catalyzed aggregation of αS templated by PMCA technique. a, The representative confocal images of HEK cells after treatment with PMCA samples from the PD and control brain. The green color images are due to the intracellularly expressed αSA53T-YFP. The αSA53T-YFP inclusions, αS-pS-129, and DAPI are represented by green, red, and blue colors. The αSA53T-YFP inclusions are indicated by white arrows. b, The αSA53T-YFP inclusions, P62, and DAPI are represented by green, red, and blue colors. The αSA53T-YFP inclusions are indicated by white arrows. c, The statistical analysis of the relative viability of HEK cells treated with the indicated conditions for 24 h determined using the MTT-reduction toxicity assay. The data were expressed as mean and the error bars report the s.e.m.
(n = 4 independent cell viability experiments and each n consisted of 4 technical replicates). The statistical analysis was performed using ANOVA with Tukey’s multiple comparison test. *p<0.05, **p<0.01, ***p<0.001, ****p<0.0001. Source data are provided as a Source Data file.

[2] = biological target: T1, αS seeds extracted from PD brain (Homo sapiens, UniProt P37840); assay: PMCA assay with αS seeds from PD brain (PK digestion, western blot); format: biochemical; details: SK-129 equimolar
T1 construct: Synuclein Residues (1-140); made in house; host or cells: Monomer: Escherichia coli BL21(DE3), WT αS in pET11 (Addgene); Seeds: fixed human substantia nigra tissue from post mortem PD brain
Excerpt: Fixed brain tissues were obtained from the Carroll A. Campbell, Jr. Neuropathology Lab (CCNL) brain bank at the Medical University of South Carolina (Dr. Steve Carroll, Director) and from Dr. Greg Gerhardt’s laboratory at the University of Kentucky. The seeds were extracted from the post mortem brain by following a published protocol with a slight modification. The brain was sliced in 1 cm slabs as soon as possible to avoid long post mortem intervals and fixed free-floating in a solution of 4% paraformaldehyde in 1x PBS buffer (4% paraformaldehyde in 1x PBS buffer). […] Following fixation, tissue was transferred to a cryoprotectant solution (30% glycerol, 30% ethylene glycol, and 40% 1x PBS buffer, v,v) and kept at −20 °C until dissection. A total of Sixteen brain regions were dissected after fixation and processed for neuropathological diagnosis of PD according to a published protocol. A diagnosis was conducted, which included staining with H & E, Bielshowsky’s silver stain, as well as p-Tau, Amyloid-β, and αS immunohistochemistry (See main manuscript Fig. 4b, c). From the total tissue amount, ~100 mg of fixed substantia nigra tissue was homogenized using a Bio-Gen PRO200 Tissue Homogenizer (PRO Scientific Inc., Oxford, CT) in 1x PBS buffer (10%, w/v). The homogenate was centrifuged at a rate of 19,000 × g for 12 min. […]

state of PMCA sample (cycle 5) of PD brain extract [2]: neither aggregated nor PK resistant
SMILES: COC(=O)c1cc(OCC(=O)O)c2cccc(NC(=O)c3cc(OC(C)C)c4cccc(NC(=O)c5cc(OCC(=O)O)c6cccc(NC(=O)c7cc(OC(C)C)c8cccc([N+](=O)[O-])c8n7)c6n5)c4n3)c2n1 [SK-129]
Relative cell viability (Supp. Figure 27) ([1]; trial 1): 0.879
Relative cell viability (Supp. Figure 27) ([1]; trial 2): 0.798
Relative cell viability (Supp. Figure 27) ([1]; trial 3): 0.821
Relative cell viability (Supp. Figure 27) ([1]; trial 4): 0.823
Relative cell viability (Supp. Figure 27) ([1]; trial 5): 0.659
Relative cell viability (Supp. Figure 27) ([1]; trial 6): 0.702
Relative cell viability (Supp. Figure 27) ([1]; trial 7): 0.735
Relative cell viability (Supp. Figure 27) ([1]; trial 8): 0.834
Relative cell viability (Supp. Figure 27) ([1]; trial 9): 0.865
Relative cell viability (Supp. Figure 27) ([1]; trial 10): 0.808
Relative cell viability (Supp. Figure 27) ([1]; trial 11): 0.853
Relative cell viability (Supp. Figure 27) ([1]; trial 12): 0.884
Relative cell viability (Supp. Figure 27) ([1]; trial 13): 0.902
Relative cell viability (Supp. Figure 27) ([1]; trial 14): 0.783
Relative cell viability (Supp. Figure 27) ([1]; trial 15): 0.732
Relative cell viability (Supp. Figure 27) ([1]; trial 16): 0.693
cell viability of HEK cells ([1]; PD fibrils+SK-129, 24 h, MTT, PD fibrils alone 50.5 ± 5.4%): 85.6 ± 7.8%
